According to article PMC10177510, “A Multicenter, Open-Label, Phase I/II Study of FN-1501 in Patients with Advanced Solid Tumors” (Cancers, 2023):

Assay: Phase I/II dose escalation: safety and tolerability (DLT, TEAE)
Type: in vivo
Experimental: This Phase 1/2, FIH, open-label, multi-center, single-arm, dose-escalation study was conducted in pts with histologically or cytologically confirmed advanced solid tumors or R/R AML.
In the absence of worrisome toxicity, the remaining pts could be enrolled and dosed in that cohort. Safety evaluations were performed by investigators, the medical monitor, and the Sponsor. A Safety Monitoring Committee determined dose levels to be administered during dose escalation based on data available from the current and previous dose levels.

SMILES: CN1CCN(Cc2ccc(NC(=O)c3[nH]ncc3Nc3ncnc4[nH]ccc34)cc2)CC1 [FN-1501]
- Diarrhea, patients with event (72 mg/day, N = 3): 1
- Dizziness, patients with event (72 mg/day, N = 3): 0
- Dyspnea, patients with event (72 mg/day, N = 3): 0
- Fatigue, patients with event (72 mg/day, N = 3): 0
- Infusion-related reaction, patients with event (72 mg/day, N = 3): 0
- Nausea, patients with event (72 mg/day, N = 3): 1
- Oedema peripheral, patients with event (72 mg/day, N = 3): 1
- Pyrexia, patients with event (72 mg/day, N = 3): 0
- Small intestinal obstruction, Grade ≥ 3 TEAE, n (%) (72 mg/day, N = 3): 1
- Total number of TEAEs (72 mg/day, N = 3): 15
- Total patients with at least 1 TEAE (72 mg/day, N = 3): 2
- Vomiting, patients with event (72 mg/day, N = 3): 0
- Dose-Limiting Toxicity (96 mg/day, 5 patients): 0
- Abdominal pain, patients with event (96 mg/day, N = 5): 0
- Back pain, patients with event (96 mg/day, N = 5): 0
- Constipation, patients with event (96 mg/day, N = 5): 1
- Decreased appetite, patients with event (96 mg/day, N = 5): 0
- Diarrhea, patients with event (96 mg/day, N = 5): 1
- Diarrhoea, Grade ≥ 3 TEAE, n (%) (96 mg/day, N = 5): 1
- Dizziness, patients with event (96 mg/day, N = 5): 1
- Dyspnea, patients with event (96 mg/day, N = 5): 0
- Fatigue, patients with event (96 mg/day, N = 5): 0
- Infusion-related reaction, patients with event (96 mg/day, N = 5): 1
- Lipase increased, Grade ≥ 3 TEAE, n (%) (96 mg/day, N = 5): 1
- Nausea, patients with event (96 mg/day, N = 5): 2
- Oedema peripheral, patients with event (96 mg/day, N = 5): 0
- Pneumonia aspiration, Grade ≥ 3 TEAE, n (%) (96 mg/day, N = 5): 1
- Pneumonia, Grade ≥ 3 TEAE, n (%) (96 mg/day, N = 5): 1
- Pneumothorax, Grade ≥ 3 TEAE, n (%) (96 mg/day, N = 5): 1
- Pyrexia, patients with event (96 mg/day, N = 5): 0
- Total number of TEAEs (96 mg/day, N = 5): 33
- Total patients with at least 1 TEAE (96 mg/day, N = 5): 5
- Vomiting, patients with event (96 mg/day, N = 5): 2
- Dose-Limiting Toxicity (128 mg/day, 3 patients): 0
- Abdominal pain, patients with event (128 mg/day, N = 3): 1
- Acute kidney injury, Grade ≥ 3 TEAE, n (%) (128 mg/day, N = 3): 1
- Aspartate aminotransferase increased, Grade ≥ 3 TEAE, n (%) (128 mg/day, N = 3): 1
- Back pain, patients with event (128 mg/day, N = 3): 1
- Blood creatinine increased, Grade ≥ 3 TEAE, n (%) (128 mg/day, N = 3): 1
- Constipation, patients with event (128 mg/day, N = 3): 0
- Decreased appetite, patients with event (128 mg/day, N = 3): 1
- Diarrhea, patients with event (128 mg/day, N = 3): 0
- Dizziness, patients with event (128 mg/day, N = 3): 1
- Dyspnea, patients with event (128 mg/day, N = 3): 1
- Fatigue, patients with event (128 mg/day, N = 3): 1
- Infusion-related reaction, patients with event (128 mg/day, N = 3): 0
- Nausea, patients with event (128 mg/day, N = 3): 1
- Oedema peripheral, patients with event (128 mg/day, N = 3): 1
- Pyrexia, patients with event (128 mg/day, N = 3): 1
- Total number of TEAEs (128 mg/day, N = 3): 43
- Total patients with at least 1 TEAE (128 mg/day, N = 3): 2
- Vomiting, patients with event (128 mg/day, N = 3): 0
- Dose-Limiting Toxicity (170 mg/day, 4 patients): 0
- Abdominal pain, patients with event (170 mg/day, N = 4): 1
- Back pain, patients with event (170 mg/day, N = 4): 0
- Bacteraemia, Grade ≥ 3 TEAE, n (%) (170 mg/day, N = 4): 1 (25)
- Constipation, patients with event (170 mg/day, N = 4): 2
- Decreased appetite, patients with event (170 mg/day, N = 4): 1
- Dehydration, Grade ≥ 3 TEAE, n (%) (170 mg/day, N = 4): 1 (25)
- Diarrhea, patients with event (170 mg/day, N = 4): 2
- Dizziness, patients with event (170 mg/day, N = 4): 1
- Dyspnea, patients with event (170 mg/day, N = 4): 2
- Fatigue, patients with event (170 mg/day, N = 4): 4
- Hyponatraemia, Grade ≥ 3 TEAE, n (%) (170 mg/day, N = 4): 1
- Hypoxia, Grade ≥ 3 TEAE, n (%) (170 mg/day, N = 4): 1 (25)
- Infusion-related reaction, patients with event (170 mg/day, N = 4): 2
- Lethargy, Grade ≥ 3 TEAE, n (%) (170 mg/day, N = 4): 1 (25)
- Nausea, patients with event (170 mg/day, N = 4): 1
- Neutropenia, Grade ≥ 3 TEAE, n (%) (170 mg/day, N = 4): 1 (25)
- Oedema peripheral, patients with event (170 mg/day, N = 4): 0
- Pyrexia, patients with event (170 mg/day, N = 4): 0
- Total number of TEAEs (170 mg/day, N = 4): 60
- Total patients with at least 1 TEAE (170 mg/day, N = 4): 4
- Vomiting, patients with event (170 mg/day, N = 4): 1
- DLT of Grade 4 thrombocytopenia, pts (226 mg/d cohort): 1 (25%)
- pts with ≥Grade 3 AEs that qualified as DLTs (226 mg/d cohort): 50%
